Earlier results in patent US20210361582A1, “COLCHICINE SALICYLATE DERIVATIVES AND METHODS OF TREATMENT” (Murray and Poole Enterprises, LTD., priority 2015, published 2021).

Key:
[1] = at 18 months; 120 patients; conventional treatment with aspirin vs plus colchicine 1.0 to 2.0 mg first day then 0.5 to 1.0 mg/day for 3 months; p=0.004
[2] = at 18 months; 84 patients; aspirin alone vs plus colchicine 1.0-2.0 mg first day then 0.5-1.0 mg/d for 6 months
[3] = colchicine 0.5 mg/day in addition to statins and other standard secondary prevention therapies; 532 patients; median 3 years
[4] = in vivo

SMILES: CC(=O)Oc1ccccc1C(=O)O [aspirin]
- recurrence rate (primary end point) [1]: 32.3%
- recurrence rate (actuarial rates) [2]: 50.6%

SMILES: COc1cc2c(c(OC)c1OC)-c1ccc(OC)c(=O)cc1[C@@H](NC(C)=O)CC2 [colchicine, N[5,6,7,9-tetrahydro-1,2,3,10-tetratmethoxy 9-oxobenzo[a]heptalen-7-yl],(S)-acetamide]
- recurrence rate (primary end point) [1]: 10.7%
- recurrence rate (actuarial rates) [2]: 24.0%
- prevention of cardiovascular events [3]: appeared effective
- bioavailability, inter patient variations ([4]; human): 20-80%
- bioavailability [4]: ca. 45%
- second peak (resorption from colon), share of totally absorbed colchicine [4]: about 50%
